Data as given in the CheMixHub viscosity set.

Assay: xn = mol fraction of the nth substance listed

c1ccc2ccccc2c1 + Cc1ccccc1
Settings	viscosity [mPa·s]
293.15 K, 101.3 kPa, x1 = 0.00773	0.6067
293.15 K, 101.3 kPa, x1 = 0.01364	0.606
293.15 K, 101.3 kPa, x1 = 0.02032	0.6117
293.15 K, 101.3 kPa, x1 = 0.02587	0.616
293.15 K, 101.3 kPa, x1 = 0.03281	0.6241
293.15 K, 101.3 kPa, x1 = 0.03882	0.6277
293.15 K, 101.3 kPa, x1 = 0.04399	0.6308
298.15 K, 101 kPa, x1 = 0.0419	0.5848
298.15 K, 101 kPa, x1 = 0.1026	0.6394
298.15 K, 101 kPa, x1 = 0.1533	0.6866
298.15 K, 101 kPa, x1 = 0.2127	0.747
298.15 K, 101.3 kPa, x1 = 0.00773	0.5676
298.15 K, 101.3 kPa, x1 = 0.01364	0.5709
298.15 K, 101.3 kPa, x1 = 0.02032	0.5768
298.15 K, 101.3 kPa, x1 = 0.02587	0.581
298.15 K, 101.3 kPa, x1 = 0.03281	0.5863
298.15 K, 101.3 kPa, x1 = 0.03882	0.591
298.15 K, 101.3 kPa, x1 = 0.04399	0.5948
303.15 K, 101 kPa, x1 = 0.3218	0.7855
308.15 K, 101 kPa, x1 = 0.3218	0.747
308.15 K, 101 kPa, x1 = 0.3709	0.8101
313.15 K, 101 kPa, x1 = 0.3218	0.7058
313.15 K, 101 kPa, x1 = 0.3709	0.7571
313.15 K, 101.3 kPa, x1 = 0.00773	0.4785
313.15 K, 101.3 kPa, x1 = 0.01364	0.4809
313.15 K, 101.3 kPa, x1 = 0.02032	0.4846
313.15 K, 101.3 kPa, x1 = 0.02587	0.4888
313.15 K, 101.3 kPa, x1 = 0.03281	0.4919
313.15 K, 101.3 kPa, x1 = 0.03882	0.4951
313.15 K, 101.3 kPa, x1 = 0.04399	0.4995
318.15 K, 101 kPa, x1 = 0.3218	0.661
318.15 K, 101 kPa, x1 = 0.3709	0.7105
323.15 K, 101 kPa, x1 = 0.3218	0.627
323.15 K, 101 kPa, x1 = 0.3709	0.672
323.15 K, 101.3 kPa, x1 = 0.00773	0.4281
323.15 K, 101.3 kPa, x1 = 0.01364	0.4311
323.15 K, 101.3 kPa, x1 = 0.02032	0.4342
323.15 K, 101.3 kPa, x1 = 0.02587	0.4374
323.15 K, 101.3 kPa, x1 = 0.03882	0.4433
323.15 K, 101.3 kPa, x1 = 0.04136	0.4401
323.15 K, 101.3 kPa, x1 = 0.04399	0.4469

COc1ccccc1 + C1CCCCC1
viscosity [mPa·s]
Settings	298.15 K	303.15 K	308.15 K	313.15 K
101 kPa, x1 = 0.1016	0.8187	0.7586	0.7009	0.6496
101 kPa, x1 = 0.1993	0.7856	0.7308	0.68	0.6314
101 kPa, x1 = 0.3005	0.77	0.7174	0.668	0.6223
101 kPa, x1 = 0.3997	0.7696	0.7169	0.6674	0.6228
101 kPa, x1 = 0.5014	0.7849	0.7317	0.6829	0.637
101 kPa, x1 = 0.6014	0.803	0.7509	0.7001	0.6546
101 kPa, x1 = 0.7043	0.8378	0.7843	0.7318	0.6823
101 kPa, x1 = 0.8	0.8834	0.8216	0.7693	0.7163
101 kPa, x1 = 0.8992	0.9338	0.87	0.8092	0.7511
101.3 kPa, x1 = 0.0224	–	0.799	–	–
101.3 kPa, x1 = 0.0385	–	0.783	–	–
101.3 kPa, x1 = 0.0614	–	0.773	–	–
101.3 kPa, x1 = 0.4829	–	0.708	–	–
101.3 kPa, x1 = 0.5172	–	0.714	–	–
101.3 kPa, x1 = 0.5409	–	0.72	–	–
101.3 kPa, x1 = 0.5731	–	0.729	–	–
101.3 kPa, x1 = 0.7744	–	0.792	–	–
101.3 kPa, x1 = 0.8952	–	0.846	–	–
101.3 kPa, x1 = 0.9478	–	0.884	–	–

CC1COC(=O)O1 (stereo unspecified) + CN(C)C=O
101.33 kPa
Settings	viscosity [mPa·s]
298.15 K, x1 = 0.1053	0.89
298.15 K, x1 = 0.1593	0.942
298.15 K, x1 = 0.2227	1.004
298.15 K, x1 = 0.2607	1.047
298.15 K, x1 = 0.3155	1.107
298.15 K, x1 = 0.3624	1.164
298.15 K, x1 = 0.4248	1.246
298.15 K, x1 = 0.4476	1.278
298.15 K, x1 = 0.5094	1.37
298.15 K, x1 = 0.5658	1.462
298.15 K, x1 = 0.6334	1.582
298.15 K, x1 = 0.659	1.63
298.15 K, x1 = 0.7108	1.742
298.15 K, x1 = 0.7559	1.835
298.15 K, x1 = 0.8147	1.983
298.15 K, x1 = 0.8705	2.117
298.15 K, x1 = 0.9299	2.284
298.15 K, x1 = 0.954	2.357
308.15 K, x1 = 0.0453	0.742
308.15 K, x1 = 0.1078	0.787
308.15 K, x1 = 0.1606	0.828
308.15 K, x1 = 0.2114	0.87
308.15 K, x1 = 0.2565	0.91
308.15 K, x1 = 0.2989	0.95
308.15 K, x1 = 0.3551	1.005
308.15 K, x1 = 0.4045	1.058
308.15 K, x1 = 0.4505	1.109
308.15 K, x1 = 0.4988	1.167
308.15 K, x1 = 0.5351	1.213
308.15 K, x1 = 0.6158	1.33
308.15 K, x1 = 0.6532	1.38
308.15 K, x1 = 0.7153	1.48
308.15 K, x1 = 0.7499	1.539
308.15 K, x1 = 0.802	1.638
308.15 K, x1 = 0.8517	1.731
308.15 K, x1 = 0.9033	1.841
318.15 K, x1 = 0.049	0.664
318.15 K, x1 = 0.0961	0.694
318.15 K, x1 = 0.1672	0.74
318.15 K, x1 = 0.2118	0.772
318.15 K, x1 = 0.2639	0.811
318.15 K, x1 = 0.3122	0.849
318.15 K, x1 = 0.3528	0.884
318.15 K, x1 = 0.4228	0.946
318.15 K, x1 = 0.4487	0.97
318.15 K, x1 = 0.4941	1.015
318.15 K, x1 = 0.5567	1.081
318.15 K, x1 = 0.6184	1.152
318.15 K, x1 = 0.6678	1.216
318.15 K, x1 = 0.7127	1.271
318.15 K, x1 = 0.7415	1.311
318.15 K, x1 = 0.8179	1.424
318.15 K, x1 = 0.8689	1.505
318.15 K, x1 = 0.9013	1.56
